According to ChEMBL document CHEMBL1144692, “Alkaloids from stems and leaves of Stemona japonica and their insecticidal activities” (J Nat Prod, 2008):
The source made the active and inactive calls. The rule behind the calls is not given here.

How the values were obtained:
[1] = target: T1, Nicotinic acetylcholine receptor alpha1 subunit (Heliothis virescens) (UniProt O46128); test: Antagonist activity at nAChR in Heliothis virescens neuronal cells assessed as blockade of acetylcholine-induced response at 10 uM by voltage clamp technique; type: functional, cell-based; parameters: scale not given: the % may be the effect or the level left
T1 sequence (whole entry): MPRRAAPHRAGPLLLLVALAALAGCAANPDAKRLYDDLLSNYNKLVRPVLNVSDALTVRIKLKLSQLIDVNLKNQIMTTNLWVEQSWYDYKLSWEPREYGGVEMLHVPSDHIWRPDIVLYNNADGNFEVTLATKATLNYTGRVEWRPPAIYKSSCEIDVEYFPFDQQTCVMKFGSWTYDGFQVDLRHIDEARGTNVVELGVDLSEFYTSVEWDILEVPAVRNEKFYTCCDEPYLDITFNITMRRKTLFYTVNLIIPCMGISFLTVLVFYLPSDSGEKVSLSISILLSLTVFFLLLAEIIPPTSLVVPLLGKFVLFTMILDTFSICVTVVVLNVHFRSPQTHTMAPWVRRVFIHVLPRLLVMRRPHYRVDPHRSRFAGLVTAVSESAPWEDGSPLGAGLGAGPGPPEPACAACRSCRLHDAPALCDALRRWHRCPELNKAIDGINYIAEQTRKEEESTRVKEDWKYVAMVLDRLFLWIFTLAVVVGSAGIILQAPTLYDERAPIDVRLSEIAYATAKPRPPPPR

[2] = target: T2, Nicotinic acetylcholine receptor alpha1 subunit (Heliothis virescens, UniProt O46128); test: Agonist activity at nAChR in Heliothis virescens neuronal cells by voltage clamp technique; type: functional, cell-based
T2 sequence (O46128 whole entry): T1 sequence (whole entry)

Spodoptera frugiperda [3] = test: Insecticidal activity against Spodoptera frugiperda at 500 g/ha; type: functional, organism-based
Myzus persicae [4] = test: Insecticidal activity against Myzus persicae at 500 g/ha; type: functional, organism-based
[5] = target: T2, Nicotinic acetylcholine receptor alpha1 subunit; test: Antagonist activity at nAChR in Heliothis virescens neuronal cells by voltage clamp technique; type: functional, cell-based
Spodoptera frugiperda [6] = test: Insecticidal activity against Spodoptera frugiperda at 4 to 500 g/ha; type: functional, organism-based
Myzus persicae [7] = test: Insecticidal activity against Myzus persicae at 4 to 500 g/ha; type: functional, organism-based

`CC1=C[C@H]([C@H]2O[C@@H]3CCCN4[C@@H](CC[C@H]4[C@@H]4C[C@H](C)C(=O)O4)[C@H]3[C@@H]2C)OC1=O` (relative stereo) gave an Activity [1] of 90%.

For `CCCC[C@]12[C@H]3C[C@H]4[C@H]5[C@H](C)C(C6OC(=O)C(C)=C6OC)O[C@]5(O3)[C@@H]1[C@H](O)CN42` (stereo partly drawn) [6beta-hydroxystemofoline], the EC50 [2] was 157 nM, the Activity (Spodoptera frugiperda [3]) was “inactive” and the Activity (Myzus persicae [4]) was “inactive”.

In the case of `CCCC[C@]12[C@@H]3C[C@H]4[C@H]5[C@H](C)C(C6OC(=O)C(CO)=C6OC)O[C@]5(O3)[C@@H]1CCN42` (some centres undefined) [16-hydroxystemofoline], the EC50 [2] is reported as 12 nM.

`COC1=C(C)C(=O)O/C1=C(\O)[C@@H](C)[C@H]1[C@@H](O)CCCN2[C@H]1CC[C@H]2[C@@H]1C[C@H](C)C(=O)O1` [PROTOSTEMODIOL] showed an IC50 [5] of 10000 nM.

In the case of `CCCC[C@@]12C3CCN1[C@H]1C[C@H]2O[C@@]32O/C(=C3\OC(=O)C(C)=C3OC)[C@@H](C)[C@H]12` [STEMOFOLINE], the EC50 [2] is reported as 50 nM, the Activity (Spodoptera frugiperda [6]) is reported as “Active” and the Activity (Myzus persicae [7]) is reported as “Active”.
